Laboratory results taken from paper PMC2725291, “Genetic and Molecular Basis of Individual Differences in Human Umami Taste Perception” (PLoS ONE, 2009).

Tested on: 254 Japanese subjects
Test: Taste recognition threshold measurement (staircase method)
Type: in vivo, human
Details: for mean recognition threshold by Gaussian fit analysis: center±S.E. of gaussian curve
From the text: A total of 254 healthy, non-obese, non-diabetic Japanese volunteers [male/female: 141/113, age: 20–36, body mass index (BMI); 16.5–24.8] participated in this study. The purpose of the study as well as the methods and procedure were explained to the participants and the patients in this manuscript have given written informed consent. All protocols were approved by the local ethics committee at Kyushu University. Subjects were asked to refrain from consuming alcohol the day before testing, caffeine on the day of testing, and food during the experimentation period. The inclusion criteria were satisfactory state of oral hygiene, non-smoking, regular work, sleep, and meal schedules.
As MSG contains sodium, great care was taken to compare individual sensitivities to MSG relative to NaCl. […] The differences in concentrations in the present study were in 0.3 log steps, which mean step-wise increases in concentration by a factor of 2.0. All solutions were made up in distilled water and used at room temperature. The testing procedure was the staircase-method modified from Pasquet et al.. Each subject evaluated all 7 tastants. The seven series of solutions were presented one after another within a single section. Within each series, the solutions with each 2.0 ml were applied to the whole tongue of each subject with a pipet in order of ascending concentrations. The subjects were asked not to swallow test solutions and rinse their mouth between two solutions with distilled water. The subject was requested to correctly name the taste quality in each series. Once the taste of two successive concentrations was recognized successfully, the subject was given the previous unrecognized concentration (first reversal). The points at which concentration sequence changed from a decrease to an increase or vice versa were designated “reversals”. The procedure was terminated after five reversals, and the threshold was calculated as the mean of the concentration values of the last four reversals.
Student's t-test was used for detection of differences in the mean recognition thresholds between males and females. The χ^2 test was used for checking Hardy-Weinberg Equilibrium (HWE) for the genotype frequencies in samples to control genotyping errors, for detection of differences in genotype and allele frequencies between high and low taste recognition threshold groups. Yates'χ^2 test was used when the number was less than 10. The mean values (the center±S.E. of gaussian curve on X-axis) in the distribution of recognition thresholds defined by TAS1R1/TAS1R3 haplotypes (TAS1R1-372A/TAS1R3-757R homozygotes, TAS1R1-372T/TAS1R3-757R homozygotes, homo- and heterozygotes containing TAS1R3-757C) were calculated using gauss fit function of Origin 5.0 (OriginLab Corp). For Ca^2+ imaging analysis, data were normalized to response to 10 µM ISO, and mean values (±S.E.) were calculated from 10∼18 independent analyses. EC50 values were calculated from individual cumulative concentration-response data using sigmoid fit functions of Origin 5.0. One factor ANOVAs were conducted for detection of differences in the distributions of recognition thresholds for umami substances among 3 groups defined by TAS1R1/TAS1R3 haplotypes, and in the responses to 5, 20 and 50 mM MSG or 0.3, 5 and 50 mM M+I among TAS1R1/TAS1R3 variants in Ca^2+ imaging analysis. When the ANOVA was significant, post-hoc Student's t-test or Fisher's PLSD test was performed to compare individual means at each umami compound or concentration. Significance level was 0.05.

For `N[C@@H](CCC(=O)O)C(=O)[O-].[Na+]` [MSG, monosodium glutamate], the “mean recognition threshold by Gaussian fit analysis” value (AR homozygotes (372A/757R)) was 7.51 ± 0.44 mM, the “mean (±S.E.) recognition threshold” value (AR homozygotes (372A/757R, n = 84)) was 6.23 ± 0.45 mM and the “mean recognition threshold by Gaussian fit analysis” value (TR homozygotes (372T/757R)) was 4.38 ± 0.29 mM. The “mean (±S.E.) recognition threshold” value (TR homozygotes (372T/757R, n = 37)) was 4.65 ± 0.47 mM, the “difference of mean recognition thresholds among 3 groups divided by TAS1R1-A372T and TAS1R3-R757C haplotypes” value (TR<AR<TAS1R3-757C) was 2∼3 fold and the “mean (±S.E.) recognition threshold” value (all subjects (254 Japanese, both genders)) was 7.66 ± 0.43 mM. The mean recognition threshold (female subjects) was 6.91 ± 0.62 mM, the “mean (±S.E.) recognition threshold” value (homo- and heterozygotes containing TAS1R3-757C (n = 39)) was 8.43 ± 0.98 mM and the “mean recognition threshold by Gaussian fit analysis” value (homo- and heterozygotes containing TAS1R3-757C) was 8.60 ± 0.20 mM. For the same compound, the mean recognition threshold (male subjects) was 8.27 ± 0.60 mM.
